These results are taken from patent US20110306671A1, “AMIDE DERIVATIVES OF ETHACRYNIC ACID” (The Regents of the The University of California, priority 2008, published 2011).

The test system of series [1] is Wnt/β-catenin signaling. Kind of series: TOPflash reporter assay in transfected HEK293 cells. As to conditions: for effect on EA-induced inhibition of Wnt/β-catenin signaling: TOPflash + Dvl, 50 μM EA with 1 mM NAC, 100 μM PDTC or 100 μM BHA, 24 hours. Type of series: cell-based, human. On the technique in general: In a reporter assay the amount or activity of a reporter protein is the signal.

Series [2] deals with Primary CLL cells. As to the kind of experiment: Cell apoptosis assay (DiOC6/PI flow cytometry) in primary CLL cells. As to conditions: 3 μM EA with NAC 1 mM or BHA 100 μM, 48 hours. Type of series: cell-based, human.
Series [3] deals with Wnt signaling. Kind of series: CellSensor LEF/TCF-bla SW480 cell-based assay (Wnt signaling inhibition). Details: species or system human. The note with it: for IC50: LEF/TCF-bla SW480 cells, 20 hours. The protocol:
To determine the specificity of compounds on Wnt/[…]-catenin pathway inhibition, CellSensor LEF/TCF-bla SW480 cell-based assay (Invitrogen, Carlsbad, Calif.) was used according to the supplier's instructions, but modified for a 96 well format. Cells were plated at 25,000 cells/well in assay medium in 96-well black plates with clear bottom (Corning) the day prior to compound treatment.

Series [4] deals with Primary CLL cells. As to the kind of experiment: Cell viability assay (MTT) with primary CLL cells. The note with it: for EC50: read-out: CLL Inhibition EC50, CLL survival, MTT, 48 hours.
Series [5] has as its system Normal PBMC. As to the kind of experiment: Cell viability assay (MTT) with normal peripheral blood mononuclear cells. Type of series: cell-based, human. As to conditions: data not shown.
In series [6] the test system is lymphoma and myeloma cells. The note with it: Schmidt et al., 2009; cited from earlier work.

Consider `COc1ccc(O)c(C(C)(C)C)c1` [BHA, 3-t-butyl-4-hydroxyanisole], for which, in series [1], the “effect on EA-induced inhibition of Wnt/β-catenin signaling” value is “did not reverse”. In addition, the “protection of CLL cells from EA-induced apoptosis” value in series [2] was “had no effect”.

With `CCCCS(=N)(=O)CCC(N)C(=O)O` (stereo not drawn) [BSO, buthionine sulfoximine], the “effect on Wnt/β-catenin signaling” value in series [1] (cell-based system, data not shown) is listed as “did not inhibit”.

For `C=C(CC)C(=O)c1ccc(OCC(=O)Nc2ccc(C(N)=O)cc2)c(Cl)c1Cl` [Compound 4], the 50% inhibitory concentration (IC50) (commonly the concentration at which inhibition is half-maximal) in series [3] is 4.76 µM. In addition, the EC50 (commonly the concentration needed to bring the measured effect to its halfway point) in series [4] was 3.7 µM.

In turn, `C=C(CC)C(=O)c1ccc(OCC(=O)NO)c(Cl)c1Cl` [Compound 5] had an IC50 in series [3] of 9.89 µM. Besides, the EC50 in series [4] was 4.5 µM.

`C=C(CC)C(=O)c1ccc(OCC(=O)Nc2ccc(C(=O)O)cc2)c(Cl)c1Cl` [Compound 6] returned an IC50 in series [3] of 5.81 µM. In addition, in series [4], the EC50 turned out to be 5 µM.

In turn, `C=C(CC)C(=O)c1ccc(OCC(=O)NC(CS)C(=O)OCC)c(Cl)c1Cl` (stereo not drawn) [Compound 7] registered an IC50 in series [3] of over 50 µM. For the same compound, in series [4], the concentration giving a half-maximal response (EC50) stood at 4.8 µM.

In series [3], `C=C(CC)C(=O)c1ccc(OCC(=O)Nc2ccc(C#N)cc2)c(Cl)c1Cl` [Compound 8] returned an IC50 of 6.84 µM. Moreover, the EC50 in series [4] came to 7.8 µM.

`C=C(CC)C(=O)c1ccc(OCC(=O)Nc2ccc(Cl)c(C(=O)O)c2)c(Cl)c1Cl` [Compound 9] came in with an IC50 in series [3] of over 50 µM. Besides, the EC50 in series [4] was determined as 15.9 µM.

As for `C=C(CC)C(=O)c1ccc(OCC(=O)Nc2cc(Cl)ccc2C(=O)O)c(Cl)c1Cl` [Compound 10], the IC50 in series [3] stood at 9.62 µM. In series [4], the 50% effective concentration (EC50) was 13.8 µM.

In series [3], `C=C(CC)C(=O)c1ccc(OCC(=O)Nc2cc(OC)c(OC)cc2C(=O)O)c(Cl)c1Cl` [Compound 11] yielded an IC50 of over 50 µM. Besides, the half-maximal effective concentration (EC50) in series [4] was 21.9 µM.

In series [3], `C=C(CC)C(=O)c1ccc(OCC(=O)Nc2ccc3c(c2)C(=O)NC3=O)c(Cl)c1Cl` [Compound 12] gave a 50% inhibitory concentration (IC50) of 4.88 µM. Besides, the EC50 in series [4] was 2.5 µM.

With `C=C(CC)C(=O)c1ccc(OCC(=O)Nc2nc3ccccc3s2)c(Cl)c1Cl` [Compound 13], 4.86 µM corresponded to half-maximal inhibition in series [3] (IC50). Moreover, the concentration for a half-maximal effect (EC50) in series [4] was determined as 1.5 µM.

As to `C=C(CC)C(=O)c1ccc(OCC(=O)NC2CCN(CC(=O)OC)CC2)c(Cl)c1Cl` [Compound 18], the concentration for half-maximal inhibition (IC50) in series [3] was over 50 µM. In addition, in series [4], the EC50 came to 10.6 µM.

The compound `C=C(CC)C(=O)c1ccc(OCC(=O)Nc2cccc(C(=O)O)c2)c(Cl)c1Cl` [Compound 19] returned an IC50 in series [3] of 5.85 µM. The 50% effective concentration (EC50) in series [4] is 20.6 µM.

Take `C=C(CC)C(=O)c1ccc(OCC(=O)NCCc2c[nH]c3ccccc23)c(Cl)c1Cl` [Compound 20]: the half-maximal inhibitory concentration (IC50) in series [3] was 10.7 µM. The concentration giving a half-maximal response (EC50) in series [4] was 5.9 µM.

Compound `C=C(CC)C(=O)c1ccc(OCC(=O)Nc2ccc(C(=O)O)cn2)c(Cl)c1Cl` [Compound 21] displayed an IC50 in series [3] of over 50 µM. Besides, in series [4], the EC50 was found to be 14.9 µM.

In turn, `C=C(CC)C(=O)c1ccc(OCC(=O)Nc2ccc(C(=O)O)c(O)c2)c(Cl)c1Cl` [Compound 22] returned a 50% inhibitory concentration (IC50) in series [3] of over 50 µM. Also, the 50% effective concentration (EC50) in series [4] was over 25 µM.

As for `C=C(CC)C(=O)c1ccc(OCC(=O)Nc2ccc(C(=O)OC)cc2)c(Cl)c1Cl` [Compound 23], in series [3], the IC50 stood at 11.4 µM. Further, in series [4], the concentration for a half-maximal effect (EC50) is 4.1 µM.

`C=C(CC)C(=O)c1ccc(OCC(=O)Nc2ccc(Cc3ccc(N4C(=O)C5C6C=CC(C6)C5C4=O)cc3)cc2)c(Cl)c1Cl` (stereo not drawn) [Compound 27]: the IC50 in series [3] was determined as 2.93 µM. For the same compound, in series [4], the EC50 stood at 1.8 µM.

As for `C=C(CC)C(=O)c1ccc(OCC(=O)Nc2ccc(C(C)=O)cc2)c(Cl)c1Cl` [Compound 28], in series [3], half-maximal inhibition (IC50) required 5.06 µM. For the same compound, the concentration for a half-maximal effect (EC50) in series [4] was found to be 3.9 µM.

Turning to `C=C(CC)C(=O)c1ccc(OCC(=O)Nc2ccc3[nH]cnc3c2)c(Cl)c1Cl` [Compound 29], in series [3], the “inhibition of Wnt signaling (in words)” value is “low micromolar concentrations” and the midpoint of inhibition, the IC50, lay at 3.62 µM. For the same compound, in series [4], the “decrease of CLL survival (in words)” value is “low micromolar concentrations” and the EC50 amounted to 3.2 µM.

`C=C(CC)C(=O)c1ccc(OCC(=O)Nc2nc(C(=NOC)C(=O)O)cs2)c(Cl)c1Cl` [Compound 30] gave a half-maximal inhibitory concentration (IC50) in series [3] of over 50 µM. Further, the EC50 in series [4] was over 25 µM.

As for `C=C(CC)C(=O)c1ccc(OCC(=O)Nc2ccc(C(=O)NC(CCC(=O)OCC)C(=O)OCC)cc2)c(Cl)c1Cl` (stereo not drawn) [Compound 31], in series [3], the “inhibition of Wnt signaling (in words)” value is on record as “low micromolar concentrations” and the IC50 came to 2.61 µM. Also, in series [4], the “decrease of CLL survival (in words)” value is given as “low micromolar concentrations” and the EC50 was 2.1 µM.

`C=C(CC)C(=O)c1ccc(OCC(=O)Nc2ccc3c(c2)C(=O)c2ccccc2C3=O)c(Cl)c1Cl` [Compound 32] displayed an IC50 in series [3] of 2.97 µM. Besides, the half-maximal effective concentration (EC50) in series [4] is 2.1 µM.

In series [3], `C=C(CC)C(=O)c1ccc(OCC(=O)NCCCN2CCCC2=O)c(Cl)c1Cl` [Compound 33] displayed an IC50 of over 50 µM. Besides, the EC50 in series [4] was 13.8 µM.

In series [3], `C=C(CC)C(=O)c1ccc(OCC(=O)Nc2ccc(C=CC(=O)OCC)cc2)c(Cl)c1Cl` [Compound 38] yielded a half-inhibitory concentration (IC50) of 3.79 µM. The EC50 in series [4] was found to be 1.7 µM.

Consider `CCC(C)C(=O)c1ccc(OCC(=O)O)c(Cl)c1Cl` (stereo not drawn) [Compound 42], for which the “inhibition of Wnt signaling (in words)” value in series [3] is given as “completely abrogated”. The compound also yielded a 50% inhibitory concentration (IC50) in series [3] (Homo sapiens) of over 50 µM. In series [4], the “decrease of CLL survival (in words)” value is given as “completely abrogated” and the EC50 was over 25 µM.

In the case of `C=C(CC)C(=O)c1ccc(OC)c(Cl)c1Cl` [Compound 43], in series [5], the “toxicity to peripheral blood mononuclear cells (PBMC)” value is on record as “highly toxic”.

Regarding `CC(=O)N[C@@H](CS)C(=O)O` [NAC, N-acetyl-L-cysteine], the “effect on EA-induced inhibition of Wnt/β-catenin signaling” value in series [1] was “significantly prevented”. Moreover, the “protection of CLL cells from EA-induced apoptosis” value in series [2] is recorded as “significantly protected”.

Take `Cc1cc(C2CCCCC2)n(O)c(=O)c1` [cic, ciclopiroxolamine]: the induction of apoptosis entry in series [6] is on record as “significant induction of apoptosis”.
